In ChEMBL document CHEMBL4014278, “Discovery of uracil-bearing DAPYs derivatives as novel HIV-1 NNRTIs via crystallographic overlay-based molecular hybridization” (Eur J Med Chem, 2017):
In brackets after ≈: the same amount, converted by molar mass. Where a name gives a salt, the structure may show the parent alone.

Legend:
[1] = tested on: Human immunodeficiency virus 1; assay: Antiviral activity against wild-type HIV1 3B infected in human MT4 cells assessed as protection against virus-induced cytopathic effect measured at 5 days post infection by MTT assay; format: functional, cell-based; conditions: Human immunodeficiency virus 1, 3B, MT4, 120 h
[2] = tested on: Human immunodeficiency virus 1; assay: Antiviral activity against HIV1 RES056 harboring K103N/Y181C double mutant infected in human MT4 cells assessed as protection against virus-induced cytopathic effect measured at 5 days post infection by MTT assay; format: functional, cell-based; conditions: Human immunodeficiency virus 1, RES056, MT4, 120 h
[3] = tested on: Human immunodeficiency virus 2; assay: Antiviral activity against HIV-2 ROD infected in human MT4 cells assessed as protection against virus-induced cytopathic effect measured at 5 days post infection by MTT assay; format: functional, cell-based; conditions: Human immunodeficiency virus 2, ISOLATE ROD, MT4, 120 h
[4] = Cytotoxicity against human MT4 cells after 5 days by MTT assay; format: cell-based
[5] = Selectivity index, ratio of CC50 for human MT4 cells to EC50 for wild-type HIV1 3B infected in human MT4 cells; format: toxicity, cell-based; conditions: read-out: Ratio CC50/EC50
[6] = n-Octanol/water partition coefficient, log P of the compound after 2 hrs by HPLC method; format: physicochemical
[7] = Solubility of the compound in phosphate buffer at pH 7.4 after 2 hrs by UV-HPLC method; format: physicochemical
[8] = Solubility of the compound in phosphate buffer at pH 2 after 2 hrs by UV-HPLC method; format: physicochemical
[9] = tested on: Human immunodeficiency virus 1; assay: Antiviral activity against HIV1 harboring L100I mutant infected in human MT4 cells assessed as protection against virus-induced cytopathic effect measured at 5 days post infection by MTT assay; format: functional, cell-based; conditions: Human immunodeficiency virus 1, MT4, 120 h
[10] = tested on: Human immunodeficiency virus 1; assay: Antiviral activity against HIV1 harboring K103N mutant infected in human MT4 cells assessed as protection against virus-induced cytopathic effect measured at 5 days post infection by MTT assay; format: functional, cell-based; conditions: Human immunodeficiency virus 1, MT4, 120 h
[11] = tested on: Human immunodeficiency virus 1; assay: Antiviral activity against HIV1 harboring Y181C mutant infected in human MT4 cells assessed as protection against virus-induced cytopathic effect measured at 5 days post infection by MTT assay; format: functional, cell-based; conditions: Human immunodeficiency virus 1, MT4, 120 h
[12] = tested on: Human immunodeficiency virus 1; assay: Antiviral activity against HIV1 harboring Y188L mutant infected in human MT4 cells assessed as protection against virus-induced cytopathic effect measured at 5 days post infection by MTT assay; format: functional, cell-based; conditions: Human immunodeficiency virus 1, MT4, 120 h
[13] = tested on: Human immunodeficiency virus 1; assay: Antiviral activity against HIV1 harboring E138K mutant infected in human MT4 cells assessed as protection against virus-induced cytopathic effect measured at 5 days post infection by MTT assay; format: functional, cell-based; conditions: Human immunodeficiency virus 1, MT4, 120 h
[14] = tested on: Human immunodeficiency virus 1; assay: Antiviral activity against HIV1 harboring F227L/V106A double mutant infected in human MT4 cells assessed as protection against virus-induced cytopathic effect measured at 5 days post infection by MTT assay; format: functional, cell-based; conditions: Human immunodeficiency virus 1, MT4, 120 h
[15] = tested on: Human immunodeficiency virus 1; assay: Fold resistance, ratio of EC50 for HIV1 harboring L100I mutant infected in human MT4 cells to EC50 for wild-type HIV1 3B infected in human MT4 cells; format: functional
[16] = tested on: Human immunodeficiency virus 1; assay: Fold resistance, ratio of EC50 for HIV1 harboring K103N mutant infected in human MT4 cells to EC50 for wild-type HIV1 3B infected in human MT4 cells; format: functional
[17] = tested on: Human immunodeficiency virus 1; assay: Fold resistance, ratio of EC50 for HIV1 harboring Y181C mutant infected in human MT4 cells to EC50 for wild-type HIV1 3B infected in human MT4 cells; format: functional
[18] = tested on: Human immunodeficiency virus 1; assay: Fold resistance, ratio of EC50 for HIV1 harboring Y188L mutant infected in human MT4 cells to EC50 for wild-type HIV1 3B infected in human MT4 cells; format: functional
[19] = tested on: Human immunodeficiency virus 1; assay: Fold resistance, ratio of EC50 for HIV1 harboring E138K mutant infected in human MT4 cells to EC50 for wild-type HIV1 3B infected in human MT4 cells; format: functional
[20] = Inhibition of wild-type HIV1 reverse transcriptase assessed as decrease in biotin-dUTP incorporation using poly(A)/oligo(dT)15 as template/primer after 1 hr by ELISA; parameters: species or system Human immunodeficiency virus 1

Row | SMILES | EC50 [1] [µM] | EC50 [2] [µM] | EC50 [3] [µM] | CC50 at 120 h [4] [µM] | selectivity ratio [5] | also measured
1 | Cc1cc(C)c(Oc2cc(Cl)nc(NCCn3ccc(=O)[nH]c3=O)n2)c(C)c1 | 0.52 | > 44.1 | > 44.1 | 44.1 | 85 | –
2 | Cc1cc(C)c(Nc2nc(NCCn3ccc(=O)[nH]c3=O)ncc2[N+](=O)[O-])c(C)c1 | 0.083 | > 3.33 | > 3.33 | ≥ 3.33 | ≥ 40 | –
3 | Cc1cc(C)cc(Oc2cc(NCCn3ccc(=O)[nH]c3=O)nc(Cl)n2)c1 | > 99.5 | – | > 99.5 | 99.5 | < 1 | –
4 | Cc1cc(C)c(Oc2ccnc(NCCn3ccc(=O)[nH]c3=O)n2)c(C)c1 | 0.53 | > 272 | > 272 | 272 | 515 | –
5 | Cc1cc(C#N)cc(C)c1Oc1ccnc(NCCn2ccc(=O)[nH]c2=O)n1 | 6.66 | > 35.8 | > 35.8 | 35.8 | 5 | logP at 2 h [6]: -0.11; solubility at 2 h [7]: 62.9 µg/mL (≈ 166 µM); solubility at 2 h [8]: > 100 µg/mL
6 | Cc1cc(/C=C/C#N)cc(C)c1Oc1cc(Cl)nc(NCCn2ccc(=O)[nH]c2=O)n1 | 0.12 | > 285 | > 285 | > 285 | > 2270 | –
7 | Cc1cc(C#N)cc(C)c1Oc1cc(Cl)nc(NCCn2ccc(=O)[nH]c2=O)n1 | 7.73 | > 20.6 | > 20.6 | 20.6 | 3 | –
8 | Cc1cc(C)c(Oc2cc(N)nc(NCCn3ccc(=O)[nH]c3=O)n2)c(C)c1 | 2.7 | > 119 | > 119 | 119 | 44 | –
9 | Cc1cc(C)c(Oc2cc(NCCn3ccc(=O)[nH]c3=O)nc(Cl)n2)c(C)c1 | > 42.3 | – | > 76.4 | 76.4 | ≤ 2 | –
10 | Cc1cc(C#N)cc(C)c1Oc1nc(NCCn2ccc(=O)[nH]c2=O)ncc1Cl | 0.046 | > 11.7 | > 11.7 | > 11.7 | ≥ 255 | –
11 | Cc1cc(C#N)cc(C)c1Oc1nc(NCCn2ccc(=O)[nH]c2=O)nc(N)c1Br | 0.034 | > 265 | > 265 | > 265 | > 7680 | –
12 | Cc1cc(C)cc(Oc2cc(N)nc(NCCn3ccc(=O)[nH]c3=O)n2)c1 | > 45.8 | – | > 127 | 127 | < 1 | –
13 | Cc1cc(C)cc(Oc2cc(Cl)nc(NCCn3ccc(=O)[nH]c3=O)n2)c1 | > 56.5 | – | > 56.5 | > 56.5 | > 1 | –
14 | Cc1cc(C)c(Nc2nc(NCCn3ccc(=O)[nH]c3=O)ncc2N)c(C)c1 | 14.9 | > 299 | > 299 | > 199 | > 20 | –
15 | Cc1cc(/C=C/C#N)cc(C)c1Oc1nc(NCCn2ccc(=O)[nH]c2=O)ncc1Cl | 0.0056 | 23.3 | > 285 | > 285 | > 50500 | EC50 [9]: 0.43 µM; EC50 [10]: 0.086 µM; EC50 [11]: 0.15 µM; EC50 [12]: 52 µM; EC50 [13]: 0.034 µM; EC50 [14]: ≥ 96.6 µM; Ratio EC50 [15]: 77; Ratio EC50 [16]: 15; Ratio EC50 [17]: 27; Ratio EC50 [18]: 9277; Ratio EC50 [19]: 6; IC50 [20]: 1.58 µM; solubility at 2 h [7]: < 0.1 µg/mL
16 | Cc1cc(/C=C/C#N)cc(C)c1Oc1ccnc(NCCn2ccc(=O)[nH]c2=O)n1 | 0.034 | > 309 | > 309 | > 309 | > 9100 | solubility at 2 h [7]: < 1 µg/mL
17 | Cc1cc(C=CC#N)cc(C)c1Oc1cc(NCCn2ccc(=O)[nH]c2=O)nc(Cl)n1 | 5.81 | – | > 26.2 | 26.2 | 5 | –
18 | Cc1cc(C)c(Oc2nc(NCCn3ccc(=O)[nH]c3=O)ncc2Cl)c(C)c1 | 0.0078 | > 2.49 | > 2.49 | 2.49 | 317 | –
19 | Cc1cc(C#N)cc(C)c1Oc1cc(N)nc(NCCn2ccc(=O)[nH]c2=O)n1 | 18.9 | > 204 | > 204 | 204 | 11 | –
20 | Cc1cc(C)c(Oc2nc(Cl)ncc2NCCn2ccc(=O)[nH]c2=O)c(C)c1 | > 2.89 | > 2.89 | > 2.89 | 2.89 | < 1 | –
21 | Cc1cc(C#N)cc(C)c1Oc1cc(NCCn2ccc(=O)[nH]c2=O)nc(Cl)n1 | 9.38 | > 27.9 | > 27.9 | 27.9 | 3 | –
22 | Cc1cc(C)cc(Oc2nc(NCCn3ccc(=O)[nH]c3=O)ncc2Cl)c1 | 0.88 | > 322 | > 322 | > 322 | > 367 | –
23 | Cc1cc(C)cc(Oc2ccnc(NCCn3ccc(=O)[nH]c3=O)n2)c1 | 48.8 | > 74.8 | > 74.8 | 74.8 | 2 | –
24 | CC(C)Nc1cccnc1N1CCN(C(=O)c2cc3cc(NS(C)(=O)=O)ccc3[nH]2)CC1 [DELAVIRDINE MESYLATE] | – | 0.032 | – | 30.4 | – | EC50 [9]: 2.1 µM; EC50 [11]: 2.04 µM; EC50 [12]: 0.69 µM; EC50 [13]: 0.043 µM
25 | O=C1Nc2ccc(Cl)cc2[C@@](C#CC2CC2)(C(F)(F)F)O1 [EFAVIRENZ] | – | – | – | > 6.34 | – | EC50 [9]: 0.1 µM; EC50 [11]: 0.0068 µM; EC50 [12]: 0.34 µM; EC50 [14]: 0.21 µM
26 | Cc1ccnc2c1NC(=O)c1cccnc1N2C1CC1 [NEVIRAPINE] | – | 0.26 | – | > 15 | – | EC50 [9]: 0.83 µM; EC50 [11]: 6.22 µM; EC50 [12]: 9.61 µM; IC50 [20]: 1.39 µM
27 | Cc1cn([C@H]2C[C@H](N=[N+]=[N-])[C@@H](CO)O2)c(=O)[nH]c1=O [ZIDOVUDINE] | – | 0.0071 | – | > 7.48 | > 1050 | EC50 [10]: 0.0083 µM; EC50 [11]: 0.0071 µM; EC50 [12]: 0.011 µM; EC50 [13]: 0.013 µM; EC50 [14]: 0.005 µM
